Experimental data reported in patent publication US8722714B2, “Oxazolidine derivatives as NMDA antagonists” (The Honk Kong University of Science and Technology, priority 2008, dated 2014).

Experiments:
[1] = system: rat primary cortical neurons; assay: Neuron survival assay against NMDA insult (LDH release); format: cell-based; details: NMDA 20 μM; for protection of rat primary cortical neurons from NMDA insults (LDH release, fold change vs DMSO): compounds 10-30 μg/ml, 11 DIV; for cell death (LDH release, cell cytotoxicity vs DMSO): compound 10 μg/mL, DIV 11
Protocol: Primary cortical and hippocampal neurons were prepared from embryonic day 18 (E18) Sprague-Dawley rats. Neurons were plated on 24-well plate (TPP, Corning) at a density of 2×10^5 cells per well using Neurobasal medium (Invitrogen) supplemented with 2% B27 (Invitrogen). Neurons at 11-12 days in vitro (12 DIV) were subjected to drug treatment. Neurons were pretreated with the test compound for 2 hours prior to NMDA treatment. 0.1 μM (+)-MK-801 Hydrogen Maleate (Sigma) was added as a positive control. Briefly, the neurons were rinsed with Locke's solution (5 mM potassium chloride, 128 mM sodium chloride, 2.7 mM calcium chloride, 1 mM di-sodium hydrogen orthophosphate, 5 mM HEPES and 10 mM glucose in Milli-Q water) without Mg^2+, and incubated with addition of glycine (10 μM) for 15 minutes. After the incubation, the neurons were co-treated with the test compound (dissolved in Locke's plus glycine solution) and NMDA (20 μM; Sigma) for 20 minutes. Neurons were rinsed with Locke's plus Mg^2+ and replaced with fresh growth medium. The cell death was assayed and quantified using the lactate dehydrogenase release assay (Roche) after 24 hours.
Embryonic rat cortical neurons (11 DIV) were treated with NMDA (20 μM) in the absence or presence of the LC series of compounds (10-30 μg/ml). […] LDH release in the medium after overnight incubation was measured and fold change was calculated when compared to the solvent control, DMSO.
Embryonic rat cortical neurons (DIV 11) were treated with NMDA (20 μM) in the absence or presence of LC-01 or LC-02 (μg/mL). LDH release in the medium after overnight incubation was measured and cell cytotoxicity was calculated in percentage when compared to the solvent control, DMSO.
Embryonic rat cortical neurons (DIV 11) were treated with NMDA (20 μM) in the absence or presence of LC-06 (μg/mL). LDH release in the medium after overnight incubation was measured and cell cytotoxicity was calculated in percentage when compared to the solvent control, DMSO.
Embryonic rat cortical neurons (11 DIV) were treated with NMDA (20 μM) in the absence or presence of LC-24 or LC-25 (μg/mL). LDH release in the medium after overnight incubation was measured and cell cytotoxicity was calculated in percentage when compared to solvent control (DMSO).

[2] = system: NMDA receptor; assay: Whole-cell patch clamp of NMDA-induced current in hippocampal neurons; format: cell-based, rat; details: compound 500 uM co-applied with NMDA 200 uM
Protocol: Hippocampal neurons were prepared from embryonic day 18 Sprague-Dawley rats. After the hippocampus had been removed from the brain, isolated cells were plated onto Poly d-Lysine (PDL) (P0899, Sigma)-coated 35 mm dishes (153066, NUNC) at a density of 3×10^5 cell per plate using Neurobasal Medium (NB) (21103-049, Gibco) with B27 supplement (17504-044, Gibco), penicillin/streptomycin (15140, Gibco) and 1 mM L-glutamine (25030, Gibco). The cell culture was incubated at 37° C. in a humidified atmosphere of 5% CO2 in air. Half of the medium was changed with NB, B27 and 50 μM L-glutamine every 2 to 3 days. On day 12 in vitro (12 DIV), whole-cell patch clamp was performed. The internal solution contained 120 mM cesium chloride, 20 mM tetraethylammonium chloride, 2 mM magnesium chloride, 1 mM calcium chloride and 10 mM HEPES (pH 7.2). The external solution contained 137 mM sodium chloride, 1 mM sodium bicarbonate, 0.34 mM sodium phosphate dibasic, 5.37 mM potassium chloride, 0.44 mM potassium phosphate monobasic, 2.5 mM HEPES (pH 7.4) and 22.2 mM glucose. Samples mixed with 50 μM NMDA (M3262, Sigma) were arranged in linear array of up to 8 individual controlled pipes (List Medical, Germany) which were connected to solution reservoirs. Memantine (10 μM, M9292, Sigma) was used as a positive control. Pipettes were fire-polished to produce a pipette resistance of 3-5 MΩ. Holding potential of patched cells was kept at −80 mV and currents were recorded using Axopatch-200B amplifier (Axon Instruments, USA). Tetrodotoxin (5 μM) and bicuculline methiodide (20 μM) (0109, Tocris) were present in the bath solution to block synaptic transmission mediated by voltage-gated sodium channels and […], respectively. Data was analyzed by pClamp9 software and percentage of inhibition on NMDA-induced current was represented in comparison to solvent control.
The NMDA receptor is a gated ion channel, which allows inflow of current during a nerve impulse. Antagonists to the receptor would prevent the inflow of current.
In FIG. 1A, hippocampal neurons from embryonic day 18 rats were isolated, trypsinized, plated onto 35-mm plates at a density of 3×10^4 cells/plate and cultured in Neurobasal medium (NB) supplemented with B27 nutrient. Rat hippocampal neurons (10-14 DIV) were treated with NMDA (50 μM) in the absence or presence of the compound LC-02 (10 μg/mL). Data is presented as % of NMDA-induced current. DMSO is the solvent control.
(§1) In FIG. 1B, NMDA antagonistic effect of LC-02 on current responses of a single hippocampal neuron. NMDA (200 uM) was applied for 2.5 sec every 30 sec but these inter-response intervals have been deleted from the above figure for a better resolution of the kinetics of individual responses (blank space in trace). LC-02 (500 uM) was co-applied with NMDA.
In FIG. 1C, effects of LC-02 on pooled NMDA current responses. Normalized peak and plateau currents are shown in the absence (DMSO) and presence of LC-02.
as §1, with “8, (a)” for “1B,”, “LC-06” for “LC-02”, “NMDA. […] (b) Effects of LC-06 on pooled NMDA current responses. Normalized peak and plateau currents are shown in the absence (DMSO) and presence of LC-06.” for “NMDA.”
as §1, with “9, (a)” for “1B,”, “LC-24” for “LC-02”, “NMDA. […] (b) Effects of LC-24 on pooled NMDA current responses. Normalized peak and plateau currents are shown in the absence (DMSO) and presence of LC-24. […]” for “NMDA.”

| SMILES | protection of rat primary cortical neurons from NMDA insults (LDH release, fold change vs DMSO) [1] | cell death (LDH release, cell cytotoxicity vs DMSO) [1] | pooled NMDA current responses (normalized peak and plateau currents) ([2]; vs DMSO, n=6) | recovery of NMDA-induced current after compound was washed out ([2]; single hippocampal neuron) |
| --- | --- | --- | --- | --- |
| CCC(C)[C@@H]1N[C@H](CC)OC1(CC)CC (stereo partly shown) [LC-10] | weaker neuroprotective effects |  |  |  |
| CC[C@@H]1N[C@@H](CC(C)C)C(CC)(CC)O1 [LC-01] | significantly protected | cell death was markedly reduced |  |  |
| CCC[C@H]1N[C@@H](Cc2ccccc2)C(CC)(CC)O1 [LC-25] | significantly protected | cell death was markedly reduced | significantly inhibits NMDA-induced current | Partial recovery of NMDA-induced current |
| CCCC1(CCC)O[C@@H](CC)N[C@H]1C(C)CC (stereo partly shown) [LC-14] | weaker neuroprotective effects |  |  |  |
| CCC[C@H]1N[C@@H](C(C)CC)C(CCC)(CCC)O1 (stereo partly shown) [LC-15] | weaker neuroprotective effects |  |  |  |
| CCCC1(CCC)O[C@@H](c2ccccc2)N[C@H]1C(C)CC (stereo partly shown) [LC-16] | weaker neuroprotective effects |  |  |  |
| CCC[C@@H]1N[C@@H](C(C)CC)C(CC)(CC)O1 (stereo partly shown) [LC-11] | weaker neuroprotective effects |  |  |  |
| CCC[C@H]1N[C@@H](C(C)CC)C(CC)(CC)O1 (stereo partly shown) [LC-12] | weaker neuroprotective effects |  |  |  |
| CCC(C)[C@@H]1N[C@@H](CC)OC1(CC)CC (stereo partly shown) [LC-09] | weaker neuroprotective effects |  |  |  |
